Measurements: BindingDB's records for doi:10.1016/j.bmcl.2016.10.061 (Ocean University of China, 2016)

Molecular target: Proto-oncogene tyrosine-protein kinase receptor Ret (Homo sapiens) (UniProt P07949)
Assay: Inhibition of CCDC6/RET (unknown origin) expressed in mouse BaF3 cells assessed as reduction in cell proliferation after 72 hrs by MTT assay

Chain of Proto-oncogene tyrosine-protein kinase receptor Ret (Homo sapiens) (P07949 whole entry, looked up): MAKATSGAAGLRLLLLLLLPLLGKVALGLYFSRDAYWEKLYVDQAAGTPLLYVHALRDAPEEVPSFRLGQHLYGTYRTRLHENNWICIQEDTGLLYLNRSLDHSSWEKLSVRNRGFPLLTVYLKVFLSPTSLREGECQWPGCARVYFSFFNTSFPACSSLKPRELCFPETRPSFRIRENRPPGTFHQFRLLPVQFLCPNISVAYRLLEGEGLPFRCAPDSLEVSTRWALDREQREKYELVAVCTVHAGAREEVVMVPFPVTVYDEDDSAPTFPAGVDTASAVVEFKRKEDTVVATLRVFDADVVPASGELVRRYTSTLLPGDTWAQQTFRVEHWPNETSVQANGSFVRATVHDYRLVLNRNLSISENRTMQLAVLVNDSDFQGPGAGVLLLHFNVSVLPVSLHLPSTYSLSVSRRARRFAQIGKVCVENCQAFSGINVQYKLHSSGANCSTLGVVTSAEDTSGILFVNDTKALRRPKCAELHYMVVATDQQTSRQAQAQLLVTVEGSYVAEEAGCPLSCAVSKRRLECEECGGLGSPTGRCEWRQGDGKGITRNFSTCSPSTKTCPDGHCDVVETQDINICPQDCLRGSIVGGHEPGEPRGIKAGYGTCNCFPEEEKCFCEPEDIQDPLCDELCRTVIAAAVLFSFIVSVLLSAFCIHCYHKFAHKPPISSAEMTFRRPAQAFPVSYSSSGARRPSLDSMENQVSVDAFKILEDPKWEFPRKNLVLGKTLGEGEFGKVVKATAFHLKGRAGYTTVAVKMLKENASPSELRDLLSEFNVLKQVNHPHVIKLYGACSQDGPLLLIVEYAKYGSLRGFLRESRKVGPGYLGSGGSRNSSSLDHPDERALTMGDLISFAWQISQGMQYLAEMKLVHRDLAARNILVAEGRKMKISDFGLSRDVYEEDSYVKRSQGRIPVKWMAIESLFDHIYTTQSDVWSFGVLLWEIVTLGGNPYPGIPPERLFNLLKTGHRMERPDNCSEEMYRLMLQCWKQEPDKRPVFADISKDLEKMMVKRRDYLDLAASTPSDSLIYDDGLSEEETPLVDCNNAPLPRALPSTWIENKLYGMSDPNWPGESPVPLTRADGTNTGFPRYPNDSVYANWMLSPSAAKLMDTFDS

IC50: 407 nM
Compound: CN1CCN(Cc2ccc(NC(=O)c3ccc(Cl)c(-c4noc(-c5cncc(-c6cnn(C)c6)c5)n4)c3)cc2C(F)(F)F)CC1
